Data: ChEMBL document CHEMBL1201862, “PubChem BioAssay data set” (2004)
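Cultured in 96-well plates, cells were exposed to test compound for 48 hours across five concentrations. Here, GI50 denotes the concentration required for 50% inhibition of growth.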 Calls of active or inactive are those of the source. Rule as the data show it: active = GI50 up to about 1.1 µM and inactive = higher.

Key:
Assay in all cases: growth of human tumour cells (NCI), 48 h
DMS-273 = test system: DMS-273
SK-MEL-2 = test system: SK-MEL-2
HCC 2998 = test system: HCC 2998
CAKI-1 = test system: CAKI-1
TK-10 = test system: TK-10
ACHN = test system: ACHN
K562 = test system: K562
DMS-114 = test system: DMS-114
NCI-H522 = test system: NCI-H522
HOP-18 = test system: HOP-18
HCT-116 = test system: HCT-116
IGROV-1 = test system: IGROV-1
OVCAR-3 = test system: OVCAR-3
UACC-257 = test system: UACC-257
SW-620 = test system: SW-620
M14 = test system: M14
OVCAR-4 = test system: OVCAR-4
SF-295 = test system: SF-295
DLD-1 = test system: DLD-1
SF-539 = test system: SF-539
A549 = test system: A549
OVCAR-5 = test system: OVCAR-5
RXF 393 = test system: RXF 393
SK-MEL-28 = test system: SK-MEL-28
HCT-15 = test system: HCT-15
SNB-78 = test system: SNB-78
RPMI-8226 = test system: RPMI-8226
UACC-62 = test system: UACC-62
SNB-19 = test system: SNB-19
COLO 205 = test system: COLO 205
UO-31 = test system: UO-31
LXFL 529 = test system: LXFL 529
KM-20L2 = test system: KM-20L2
NCI-H226 = test system: NCI-H226
NCI-H23 = test system: NCI-H23
XF498 = test system: XF498
M19-MEL = test system: M19-MEL
SNB-75 = test system: SNB-75
SR = test system: SR
U-251 = test system: U-251
SK-MEL-5 = test system: SK-MEL-5
LOX IMVI = test system: LOX IMVI
KM12 = test system: KM12
HOP-62 = test system: HOP-62
RXF 631 = test system: RXF 631
Malme-3M = test system: Malme-3M
SN12C = test system: SN12C
SF-268 = test system: SF-268
OVCAR-8 = test system: OVCAR-8
CCRF-CEM = test system: CCRF-CEM
HT-29 = test system: HT-29
NCI-H460 = test system: NCI-H460
EKVX = test system: EKVX
A498 = test system: A498
HL-60 = test system: HL-60
MOLT-4 = test system: MOLT-4
HOP-92 = test system: HOP-92
786-0 = test system: 786-0

## Cc1cc2cccc(Cl)c2nc1C(=O)c1ccccc1
DMS-273
  GI50: > 100 µM (inactive)
SK-MEL-2
  GI50: > 100 µM (inactive)
HCC 2998
  GI50: > 100 µM (inactive)
CAKI-1
  GI50: > 100 µM (inactive)
TK-10
  GI50: > 100 µM (inactive)
ACHN
  GI50: > 100 µM (inactive)
K562
  GI50: > 100 µM (inactive)
DMS-114
  GI50: > 100 µM (inactive)
NCI-H522
  GI50: 41.2 µM (inactive)
HOP-18
  GI50: 18.7 µM (inactive)
HCT-116
  GI50: > 100 µM (inactive)
IGROV-1
  GI50: > 100 µM (inactive)
OVCAR-3
  GI50: > 100 µM (inactive)
UACC-257
  GI50: 18.2 µM (inactive)
SW-620
  GI50: > 100 µM (inactive)
M14
  GI50: 76.2 µM (inactive)
OVCAR-4
  GI50: 86.3 µM (inactive)
SF-295
  GI50: 18.9 µM (inactive)
DLD-1
  GI50: > 100 µM (inactive)
SF-539
  GI50: > 100 µM (inactive)
A549
  GI50: > 100 µM (inactive)
OVCAR-5
  GI50: > 100 µM (inactive)
RXF 393
  GI50: 26.6 µM (inactive)
SK-MEL-28
  GI50: > 100 µM (inactive)
HCT-15
  GI50: > 100 µM
SNB-78
  GI50: > 100 µM (inactive)
RPMI-8226
  GI50: > 100 µM (inactive)
UACC-62
  GI50: > 100 µM (inactive)
SNB-19
  GI50: 70.3 µM (inactive)
COLO 205
  GI50: > 100 µM (inactive)
UO-31
  GI50: > 100 µM (inactive)
LXFL 529
  GI50: > 100 µM (inactive)
KM-20L2
  GI50: > 100 µM (inactive)
NCI-H226
  GI50: > 100 µM (inactive)
NCI-H23
  GI50: > 100 µM (inactive)
XF498
  GI50: 82 µM (inactive)
M19-MEL
  GI50: > 100 µM (inactive)
SNB-75
  GI50: 17.1 µM (inactive)
SR
  GI50: > 100 µM (inactive)
U-251
  GI50: > 100 µM (inactive)
SK-MEL-5
  GI50: > 100 µM (inactive)
LOX IMVI
  GI50: 94.4 µM (inactive)
KM12
  GI50: > 100 µM (inactive)
HOP-62
  GI50: 44.1 µM (inactive)
RXF 631
  GI50: 89.3 µM (inactive)
Malme-3M
  GI50: 50.5 µM (inactive)
SN12C
  GI50: > 100 µM (inactive)
SF-268
  GI50: > 100 µM (inactive)
OVCAR-8
  GI50: 46.3 µM (inactive)

## O=C(CC1C(=O)Nc2ccccc2[S+]1[O-])Nc1cc(Cl)ccc1Cl (configuration not stated)
DMS-273
  GI50: > 100 µM (inactive)
SK-MEL-2
  GI50: > 100 µM (inactive)
HCC 2998
  GI50: > 100 µM (inactive)
CAKI-1
  GI50: > 100 µM (inactive)
TK-10
  GI50: > 100 µM (inactive)
ACHN
  GI50: > 100 µM (inactive)
K562
  GI50: > 100 µM (inactive)
DMS-114
  GI50: > 100 µM (inactive)
NCI-H522
  GI50: > 100 µM (inactive)
HCT-116
  GI50: > 100 µM (inactive)
IGROV-1
  GI50: > 100 µM (inactive)
OVCAR-3
  GI50: > 100 µM (inactive)
UACC-257
  GI50: > 100 µM (inactive)
CCRF-CEM
  GI50: > 100 µM (inactive)
SW-620
  GI50: > 100 µM (inactive)
M14
  GI50: > 100 µM (inactive)
HT-29
  GI50: > 100 µM (inactive)
NCI-H460
  GI50: > 100 µM (inactive)
SF-295
  GI50: > 100 µM (inactive)
DLD-1
  GI50: > 100 µM (inactive)
SF-539
  GI50: > 100 µM (inactive)
A549
  GI50: > 100 µM (inactive)
OVCAR-5
  GI50: > 100 µM (inactive)
RXF 393
  GI50: > 100 µM (inactive)
SK-MEL-28
  GI50: > 100 µM (inactive)
HCT-15
  GI50: > 100 µM
SNB-78
  GI50: > 100 µM (inactive)
RPMI-8226
  GI50: > 100 µM (inactive)
UACC-62
  GI50: > 100 µM (inactive)
SNB-19
  GI50: > 100 µM (inactive)
UO-31
  GI50: > 100 µM (inactive)
LXFL 529
  GI50: > 100 µM (inactive)
KM-20L2
  GI50: > 100 µM (inactive)
NCI-H226
  GI50: > 100 µM (inactive)
EKVX
  GI50: > 100 µM (inactive)
NCI-H23
  GI50: > 100 µM (inactive)
XF498
  GI50: > 100 µM (inactive)
M19-MEL
  GI50: > 100 µM (inactive)
SNB-75
  GI50: > 100 µM (inactive)
A498
  GI50: > 100 µM (inactive)
SR
  GI50: > 100 µM (inactive)
U-251
  GI50: > 100 µM (inactive)
HL-60
  GI50: > 100 µM (inactive)
MOLT-4
  GI50: > 100 µM (inactive)
SK-MEL-5
  GI50: > 100 µM (inactive)
LOX IMVI
  GI50: > 100 µM (inactive)
RXF 631
  GI50: > 100 µM (inactive)
HOP-92
  GI50: > 100 µM (inactive)
Malme-3M
  GI50: > 100 µM (inactive)
786-0
  GI50: > 100 µM (inactive)
SN12C
  GI50: > 100 µM (inactive)
SF-268
  GI50: > 100 µM (inactive)
OVCAR-8
  GI50: > 100 µM (inactive)
